In ChEMBL document CHEMBL1201862, “PubChem BioAssay data set” (2004):
Calls of active or inactive are those of the source.

Key:
[1] = HEK293T cytotoxicity, dose response, cytotoxicity control for miR-122 modulator project, cell-based, inhibitor set, cherry-pick, set 2 (AID 720697); type: functional
cells [2] = type: functional, cell-based
[3] = molecular target: T1, Nuclear receptor subfamily 0 group B member 1 (Homo sapiens, UniProt P51843); type: functional, cell-based;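 also: HEK293T cells transfected with SF-1 and DAX-1 plus StAR promoter luciferase reporter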
T1 sequence (P51843 whole entry): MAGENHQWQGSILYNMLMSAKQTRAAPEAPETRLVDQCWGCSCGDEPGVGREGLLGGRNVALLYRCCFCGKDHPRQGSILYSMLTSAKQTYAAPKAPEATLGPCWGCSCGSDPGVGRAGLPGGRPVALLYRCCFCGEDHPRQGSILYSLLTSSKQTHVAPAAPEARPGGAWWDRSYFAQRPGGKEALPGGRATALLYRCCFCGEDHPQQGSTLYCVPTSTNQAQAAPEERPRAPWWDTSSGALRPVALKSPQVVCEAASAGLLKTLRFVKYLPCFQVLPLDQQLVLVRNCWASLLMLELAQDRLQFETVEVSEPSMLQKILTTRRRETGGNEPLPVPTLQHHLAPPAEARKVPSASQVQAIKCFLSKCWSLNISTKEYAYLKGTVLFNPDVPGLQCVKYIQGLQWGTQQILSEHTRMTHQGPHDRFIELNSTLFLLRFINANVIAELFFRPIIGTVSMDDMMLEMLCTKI

Fatty acid synthase [4] = molecular target: T2, Fatty acid synthase (Homo sapiens, UniProt P49327); test: FAS thioesterase domain inhibitors, dose response, biochemical, endpoint fluorescence intensity, uHTS hits (AID 624327); type: functional;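 also: fluorescence from hydrolysis of an O-methyl fluorescein acyl ester substrate by the enzyme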
T2 sequence (P49327 whole entry, the tested form may be a part): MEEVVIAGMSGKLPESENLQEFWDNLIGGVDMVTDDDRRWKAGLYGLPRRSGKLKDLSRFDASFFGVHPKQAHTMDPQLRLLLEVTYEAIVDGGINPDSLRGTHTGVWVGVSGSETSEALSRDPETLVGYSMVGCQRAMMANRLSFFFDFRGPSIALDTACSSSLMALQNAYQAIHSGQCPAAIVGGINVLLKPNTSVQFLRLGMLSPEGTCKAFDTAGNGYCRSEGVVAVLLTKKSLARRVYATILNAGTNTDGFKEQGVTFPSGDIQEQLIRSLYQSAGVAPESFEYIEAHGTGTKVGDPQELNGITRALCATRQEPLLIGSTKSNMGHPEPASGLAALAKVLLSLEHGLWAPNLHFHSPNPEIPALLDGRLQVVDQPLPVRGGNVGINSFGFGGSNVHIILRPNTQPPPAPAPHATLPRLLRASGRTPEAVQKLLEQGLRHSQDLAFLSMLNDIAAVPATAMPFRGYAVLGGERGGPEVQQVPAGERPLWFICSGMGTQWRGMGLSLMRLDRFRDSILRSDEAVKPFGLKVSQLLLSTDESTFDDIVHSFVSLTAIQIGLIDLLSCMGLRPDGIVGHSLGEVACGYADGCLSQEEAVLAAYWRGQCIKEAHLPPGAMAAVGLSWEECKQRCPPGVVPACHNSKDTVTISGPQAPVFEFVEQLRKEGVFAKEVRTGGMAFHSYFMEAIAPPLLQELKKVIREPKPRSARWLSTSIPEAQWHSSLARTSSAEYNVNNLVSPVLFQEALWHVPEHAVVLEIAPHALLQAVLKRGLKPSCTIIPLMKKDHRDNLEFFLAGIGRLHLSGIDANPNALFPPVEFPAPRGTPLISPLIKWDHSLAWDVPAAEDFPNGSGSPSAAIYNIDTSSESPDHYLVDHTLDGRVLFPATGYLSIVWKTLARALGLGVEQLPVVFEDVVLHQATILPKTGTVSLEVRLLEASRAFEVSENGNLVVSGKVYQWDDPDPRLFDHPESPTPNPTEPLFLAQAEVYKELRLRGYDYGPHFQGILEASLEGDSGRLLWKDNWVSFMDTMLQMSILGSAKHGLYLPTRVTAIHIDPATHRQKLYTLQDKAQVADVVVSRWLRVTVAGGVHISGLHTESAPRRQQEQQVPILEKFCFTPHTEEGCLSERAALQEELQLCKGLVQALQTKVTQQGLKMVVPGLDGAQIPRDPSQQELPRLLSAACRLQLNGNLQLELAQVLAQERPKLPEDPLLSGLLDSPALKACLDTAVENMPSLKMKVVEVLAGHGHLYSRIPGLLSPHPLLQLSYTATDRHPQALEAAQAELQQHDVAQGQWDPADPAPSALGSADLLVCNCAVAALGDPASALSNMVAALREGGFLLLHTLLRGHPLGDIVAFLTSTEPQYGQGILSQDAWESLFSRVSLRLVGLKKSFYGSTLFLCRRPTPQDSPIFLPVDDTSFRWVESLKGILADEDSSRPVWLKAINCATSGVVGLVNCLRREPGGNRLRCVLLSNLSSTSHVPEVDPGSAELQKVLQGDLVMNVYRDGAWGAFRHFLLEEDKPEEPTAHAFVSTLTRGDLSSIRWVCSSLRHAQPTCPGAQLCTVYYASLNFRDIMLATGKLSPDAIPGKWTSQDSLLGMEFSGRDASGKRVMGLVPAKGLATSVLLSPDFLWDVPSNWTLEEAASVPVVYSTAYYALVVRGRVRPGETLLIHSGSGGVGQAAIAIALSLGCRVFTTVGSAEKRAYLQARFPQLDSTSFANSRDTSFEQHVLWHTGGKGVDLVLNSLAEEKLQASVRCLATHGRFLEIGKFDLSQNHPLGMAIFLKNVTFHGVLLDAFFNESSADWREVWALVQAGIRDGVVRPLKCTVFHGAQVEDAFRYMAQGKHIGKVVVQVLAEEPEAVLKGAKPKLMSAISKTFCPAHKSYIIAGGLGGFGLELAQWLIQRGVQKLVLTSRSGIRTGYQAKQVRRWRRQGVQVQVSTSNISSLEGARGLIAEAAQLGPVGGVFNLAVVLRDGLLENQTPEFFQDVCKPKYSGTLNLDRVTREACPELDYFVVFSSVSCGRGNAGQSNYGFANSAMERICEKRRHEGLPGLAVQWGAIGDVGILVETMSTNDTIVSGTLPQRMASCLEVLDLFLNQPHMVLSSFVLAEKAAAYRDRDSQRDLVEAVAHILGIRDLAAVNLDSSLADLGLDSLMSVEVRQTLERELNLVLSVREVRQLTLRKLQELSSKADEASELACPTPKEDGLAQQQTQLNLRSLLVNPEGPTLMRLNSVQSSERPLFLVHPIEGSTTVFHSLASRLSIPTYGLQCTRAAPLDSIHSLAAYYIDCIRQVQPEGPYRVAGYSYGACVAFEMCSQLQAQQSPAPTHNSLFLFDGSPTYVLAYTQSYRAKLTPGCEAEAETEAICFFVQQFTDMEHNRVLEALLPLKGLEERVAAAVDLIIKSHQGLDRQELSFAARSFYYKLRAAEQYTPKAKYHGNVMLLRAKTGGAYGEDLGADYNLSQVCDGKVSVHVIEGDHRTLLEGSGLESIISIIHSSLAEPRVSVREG

Fatty acid synthase [5] = molecular target: T2, Fatty acid synthase; test: FAS thioesterase domain inhibitors, dose response, biochemical, kinetic fluorescence intensity (AID 624326); type: functional;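 also: rate of fluorescence rise from hydrolysis of a fluorogenic O-methyl fluorescein ester substrate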
[6] = molecular target: T3, DNA repair protein RAD52 homolog (Homo sapiens, UniProt P43351); type: functional, biochemical
T3 sequence (P43351 whole entry): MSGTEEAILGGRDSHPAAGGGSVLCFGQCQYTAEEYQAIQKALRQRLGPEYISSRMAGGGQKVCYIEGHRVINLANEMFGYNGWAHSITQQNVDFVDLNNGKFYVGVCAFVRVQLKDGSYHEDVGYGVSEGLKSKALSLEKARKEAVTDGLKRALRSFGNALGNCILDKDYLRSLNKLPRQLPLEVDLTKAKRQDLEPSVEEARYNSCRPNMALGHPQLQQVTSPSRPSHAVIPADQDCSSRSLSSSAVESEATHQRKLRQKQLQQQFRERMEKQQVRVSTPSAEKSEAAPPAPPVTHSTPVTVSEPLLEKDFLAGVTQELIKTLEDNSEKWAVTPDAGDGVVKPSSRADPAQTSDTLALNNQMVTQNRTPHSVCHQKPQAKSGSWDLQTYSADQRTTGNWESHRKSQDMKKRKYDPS

[7] = molecular target: T4, Rac GTPase-activating protein 1 (Homo sapiens, UniProt Q9H0H5); test: MgcRacGAP GTPase-activating activity inhibitors, confirmation, biochemical, ADP Hunter fluorescence, primary and confirmatory (AID 624330); type: functional
T4 sequence (Q9H0H5 whole entry): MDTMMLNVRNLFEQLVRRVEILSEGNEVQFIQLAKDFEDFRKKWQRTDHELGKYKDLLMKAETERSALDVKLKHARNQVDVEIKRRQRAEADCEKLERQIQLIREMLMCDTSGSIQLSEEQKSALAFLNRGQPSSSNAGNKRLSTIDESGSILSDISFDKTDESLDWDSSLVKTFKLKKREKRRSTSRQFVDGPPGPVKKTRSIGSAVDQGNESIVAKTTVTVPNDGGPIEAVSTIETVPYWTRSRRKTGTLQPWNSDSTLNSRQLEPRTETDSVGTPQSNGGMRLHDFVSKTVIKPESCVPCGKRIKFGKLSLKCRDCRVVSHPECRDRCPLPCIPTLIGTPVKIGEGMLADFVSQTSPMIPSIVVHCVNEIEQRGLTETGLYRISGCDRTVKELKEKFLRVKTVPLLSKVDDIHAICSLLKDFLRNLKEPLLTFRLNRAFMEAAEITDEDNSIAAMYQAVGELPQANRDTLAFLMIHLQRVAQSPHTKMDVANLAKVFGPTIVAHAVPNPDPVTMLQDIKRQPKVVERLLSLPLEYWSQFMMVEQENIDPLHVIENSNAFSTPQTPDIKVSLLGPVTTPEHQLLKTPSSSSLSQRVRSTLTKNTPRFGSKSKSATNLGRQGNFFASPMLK

Kallikrein-7 = Kallikrein-7 (Homo sapiens, UniProt P49862); test: Fluorescence Intensity-based biochemical primary high throughput dose response assay to identify activators of kallikrein-7 (K7) zymogen.
Chain of Kallikrein-7 (P49862 whole entry): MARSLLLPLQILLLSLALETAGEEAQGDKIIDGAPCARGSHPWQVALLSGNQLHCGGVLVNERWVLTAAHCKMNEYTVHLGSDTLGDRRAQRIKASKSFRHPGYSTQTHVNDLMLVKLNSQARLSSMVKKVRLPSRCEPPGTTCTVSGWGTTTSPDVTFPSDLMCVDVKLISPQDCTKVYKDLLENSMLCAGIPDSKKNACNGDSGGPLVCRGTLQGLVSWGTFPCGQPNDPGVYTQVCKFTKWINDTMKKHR

[8] = molecular target: T5, Histone-lysine N-methyltransferase NSD2 (Homo sapiens, UniProt O96028); type: biochemical
T5 sequence (O96028 whole entry): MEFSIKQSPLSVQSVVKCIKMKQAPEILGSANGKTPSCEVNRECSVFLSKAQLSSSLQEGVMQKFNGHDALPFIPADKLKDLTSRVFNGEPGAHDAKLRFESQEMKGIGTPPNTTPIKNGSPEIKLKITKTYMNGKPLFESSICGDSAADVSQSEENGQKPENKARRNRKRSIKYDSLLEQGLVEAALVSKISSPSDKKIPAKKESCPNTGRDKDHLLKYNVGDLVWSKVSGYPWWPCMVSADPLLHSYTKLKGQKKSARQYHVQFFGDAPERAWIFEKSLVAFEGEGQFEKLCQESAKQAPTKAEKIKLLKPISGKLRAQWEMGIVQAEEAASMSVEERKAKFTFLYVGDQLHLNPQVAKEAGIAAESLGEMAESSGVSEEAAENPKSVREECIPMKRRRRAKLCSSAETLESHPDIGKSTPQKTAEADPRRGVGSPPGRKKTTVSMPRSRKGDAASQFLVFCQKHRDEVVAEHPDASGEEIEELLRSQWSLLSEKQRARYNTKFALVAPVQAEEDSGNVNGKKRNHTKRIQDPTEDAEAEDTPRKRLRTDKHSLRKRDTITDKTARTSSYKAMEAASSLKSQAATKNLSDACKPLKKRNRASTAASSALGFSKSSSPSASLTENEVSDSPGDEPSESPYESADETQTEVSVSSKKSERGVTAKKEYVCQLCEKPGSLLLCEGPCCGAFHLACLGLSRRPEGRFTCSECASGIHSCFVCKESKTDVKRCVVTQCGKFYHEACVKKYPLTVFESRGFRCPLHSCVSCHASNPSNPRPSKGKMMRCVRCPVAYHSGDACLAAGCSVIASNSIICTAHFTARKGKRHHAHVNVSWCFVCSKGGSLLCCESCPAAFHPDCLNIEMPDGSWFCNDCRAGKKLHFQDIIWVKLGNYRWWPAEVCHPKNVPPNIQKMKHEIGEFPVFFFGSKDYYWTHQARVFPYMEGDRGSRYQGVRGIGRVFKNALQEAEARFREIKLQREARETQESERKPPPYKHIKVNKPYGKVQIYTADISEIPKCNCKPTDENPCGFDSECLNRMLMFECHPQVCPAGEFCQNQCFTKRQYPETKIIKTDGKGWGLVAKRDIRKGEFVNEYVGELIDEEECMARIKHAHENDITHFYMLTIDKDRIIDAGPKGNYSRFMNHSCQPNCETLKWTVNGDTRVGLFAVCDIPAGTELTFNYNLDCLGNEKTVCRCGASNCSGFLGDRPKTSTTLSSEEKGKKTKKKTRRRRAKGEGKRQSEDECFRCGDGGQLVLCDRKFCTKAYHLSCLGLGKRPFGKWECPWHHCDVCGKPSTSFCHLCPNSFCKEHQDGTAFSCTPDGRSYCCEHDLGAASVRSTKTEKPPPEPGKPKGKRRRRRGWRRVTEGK

[9] = inhibitors of intracellular T. cruzi replication, confirmation, NIH3T3 host cells, beta-gal luminescence (AID 2044); type: functional, cell-based;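 also: intracellular parasites grown in NIH/3T3 mouse fibroblasts as host cells; luminescent beta-galactosidase reporter signal from transgenic T. cruzi replicating inside host cells; inhibitors lower the luminescence signal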
[10] = cytotoxicity toward NIH3T3 fibroblasts, dose response, counter-screen, cell-based, ATP luminescence, mouse fibroblasts (AID 2010); type: functional;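 also: cells exposed to compound for about 90 hours before reading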
[11] = HEp-2 cell cytotoxicity, dose response, cytotoxicity control for RSV inhibitor project, HTS (AID 2410); type: functional; conditions: human respiratory syncytial virus
[12] = Luminescence Cell-Based Dose Retest to Confirm Inhibitors of Cancer Stem Cells. [Related pubchem assays (depositor defined):AID2717, AID2721]; type: functional; conditions: Homo sapiens
cells [13] = test: cells
Prothrombin = Prothrombin (Homo sapiens, UniProt P00734); test: Thrombin 1536 HTS Dose Response Confirmation. [Related pubchem assays: 1046 (Thrombin 1536 HTS; hits were confirmed in this assay)]; type: functional
[14] = growth suppression of PTEN-null colon cells, dose response, cell-based, HCT116 PTEN knockout (AID 1047); type: functional;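 also: HCT116 colon tumor cells with PTEN knocked out; cells exposed to compound for 60 hours before readout; potency for loss of cell viability measured by luminescence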
[15] = growth suppression of beta-catenin-knockout colon cells, dose response, cell-based, HCT116, human colon tumor (AID 1045); type: functional;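 also: HCT116 colon tumor cells with beta catenin knocked out; cells exposed to compound for 60 hours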
[16] = molecular target: T6, Heat shock factor protein 1 (Mus musculus, UniProt P38532); test: inhibition of MG132-induced HSE-luciferase signal, confirmation, cell-based, NIH3T3, luminescence, dose retest (AID 2382); type: functional;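 also: NIH3T3 fibroblasts with HSF1-driven luciferase reporter stressed by proteasome inhibitor MG132; luminescence from HSF1-driven luciferase expression after 8 hours of MG132 stress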
T6 sequence (P38532 whole entry): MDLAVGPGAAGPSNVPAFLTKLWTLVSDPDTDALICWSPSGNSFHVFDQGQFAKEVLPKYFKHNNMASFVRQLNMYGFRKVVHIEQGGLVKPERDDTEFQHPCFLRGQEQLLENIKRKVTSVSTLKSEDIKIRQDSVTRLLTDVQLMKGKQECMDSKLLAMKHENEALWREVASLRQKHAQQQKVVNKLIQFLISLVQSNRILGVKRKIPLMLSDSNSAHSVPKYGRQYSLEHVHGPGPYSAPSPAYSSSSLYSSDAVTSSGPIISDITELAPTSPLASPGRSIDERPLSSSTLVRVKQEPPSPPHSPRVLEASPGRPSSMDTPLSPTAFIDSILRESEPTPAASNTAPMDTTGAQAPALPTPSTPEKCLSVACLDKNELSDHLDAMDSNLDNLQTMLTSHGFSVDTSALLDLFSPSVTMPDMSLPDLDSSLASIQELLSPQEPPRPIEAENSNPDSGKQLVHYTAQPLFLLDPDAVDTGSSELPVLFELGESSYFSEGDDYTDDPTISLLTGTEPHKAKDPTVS

With `CO[C@@H]1CN(C)C(=O)c2cc(NC(=O)c3cccc(Oc4ccccc4)c3)ccc2OC[C@H](C)NC[C@@H]1C` the AC50 [1] was 15.1 µM (active).

For `Cn1cccc1C(=O)NCC1COc2ccccc2O1` (stereo not given), the IC50 (cells [2]) was > 67.5 µM (inactive) and the IC50 [3] was > 67.5 µM (inactive).

In the case of `Cc1cc(C(C)(C)C)cc(C)c1COC(=O)CN1C(=O)NC2(CCCC2)C1=O`, the IC50 (Fatty acid synthase [4]) is reported as 15.8 µM (active) and the IC50 (Fatty acid synthase [5]) is reported as 13.2 µM (active).

With `COc1ccccc1-c1nnc2n1N=C(c1ccc3c(c1)OCO3)CS2` the IC50 (cells [2]) was > 67.6 µM (inactive) and the IC50 [3] was > 67.6 µM (inactive).

With `CCOc1cc(-c2nccc3cc(OC)c(OC)cc23)cc(OCC)c1OCC` [OCTAVERINE] the AC50 [1] was 1.89 µM (active).

With `COc1ccccc1C=C1CCc2ccccc2C1=O` the IC50 (cells [2]) was > 67.5 µM (inactive) and the IC50 [3] was > 67.5 µM (inactive).

With `CN1CCN(CCCNCc2cn(CCC#N)c3ccccc23)CC1` the AC50 [6] was 4.32 µM (active) and the IC50 [7] was 64.3 µM (active).

For `O=C(COC(=O)c1cc([N+](=O)[O-])ccc1NCCO)Nc1cccc(S(=O)(=O)N2CCCC2)c1`, the IC50 (Fatty acid synthase [4]) was 6.67 µM (active) and the IC50 (Fatty acid synthase [5]) was 4.57 µM (active).

In the case of `COc1ccc2c(c1)CCC/C2=N\NC(=O)c1ccoc1C`, the IC50 (cells [2]) is reported as > 67.5 µM (inactive) and the IC50 [3] is reported as > 67.5 µM (inactive).

In the case of `COc1ccc(-c2ccc3nnc(SCC(=O)N4CCCC4)n3n2)cc1`, the EC50 (Kallikrein-7) is reported as > 69.5 µM (inactive).

With `C[n+]1ccc(/C=C/c2ccccc2O)c2ccccc21` the AC50 [8] was > 20 µM (inactive), the EC50 [9] was 753 nM (active) and the AC50 [6] was 19.1 µM (active). The EC50 [10] was > 60 µM (not active) and the IC50 [7] was 178 µM (active).

For `OCCCNc1cc(-c2ccccc2)nc2cc(-c3ccc(F)cc3)nn12`, the CC50 [11] was > 50 µM (active), the AC50 [12] was 6.05 µM (active) and the IC50 (cells [13]) was 22.4 µM (active).

For `CCCC(C)C(=O)Nc1cc([N+](=O)[O-])ccc1Cl` (stereo not given), the IC50 (Fatty acid synthase [4]) was 12.2 µM (active) and the IC50 (Fatty acid synthase [5]) was 11.8 µM (active).

With `COc1ccc(N(C(=O)c2ccco2)S(=O)(=O)c2ccc(F)cc2)cc1` the IC50 (Prothrombin) was 17.5 µM (active).

With `c1ccc(CCCNCCCn2cnc3c(OCc4ccccc4)ncnc32)cc1` the AC50 [1] was 7.5 µM (active).

With `COC(=O)c1ccc(C2C(C#N)=C(C)N=C3CC(C)(C)CC(O)=C32)cc1` (stereo not given) the EC50 (Kallikrein-7) was 20.8 µM (inactive).

With `Cc1nn2c(NCCCN(C)C)c3c(nc2c1-c1ccccc1)CCC3` the EC50 [9] was 625 nM (active), the EC50 [14] was 15.9 µM (active) and the EC50 [10] was > 60 µM (not active). The EC50 [15] was 15.9 µM (active) and the IC50 (Prothrombin) was > 50 µM (not active).

For `C=CCN(C(=O)Nc1ccc2c(c1)nc(C)n2C)c1ccccc1`, the IC50 (Prothrombin) was > 50 µM (not active).

For `Cc1cc(-n2c(C)c3c(C)nnc(C)c3c2C)ccc1N`, the EC50 [16] was > 195 µM (not active) and the AC50 [6] was 8.66 µM (active).

In the case of `CCC(C)NCCOc1cc(C)cc(C)c1C` (stereo not given), the IC50 (Prothrombin) is reported as > 50 µM (not active).

In the case of `N#Cc1c(NC(=O)COC(=O)c2nccnc2N)sc2c1CCCC2`, the EC50 (Kallikrein-7) is reported as > 69.5 µM (inactive).
